This note sets out measurements from PubChem BioAssay (NCI).

Among the test systems are A498 renal; A549 NSCLC; HS 578T breast; KM12 colon; LOX IMVI melanoma; MDA-MB-435; NCI-H226 lung; SF-539 CNS; SW-620 colon; UO-31 renal.
Holding throughout (test): inhibition of tumour cell growth, NCI panel, 48 h

SMILES strings stand for the structures. Values joined by “and” are separate entries in the source; they are usually repeats but may differ in a detail not shown here. Equal values may be shown once.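 Method: 48-hour compound exposure of cells in 96-well plates, five concentrations, linear interpolation of endpoints. The concentration for 50% growth inhibition is given as GI50. Definition used: TGI = concentration required for complete inhibition of growth.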 A value given as a limit tells only on which side of the number the result lay.

`COc1cccc2c1C(=O)c1c(O)c3c(c(O)c1C2=O)CC(O)(C(C)=O)CC3OC1CC(N)C(O)C(C)O1` (configuration not stated): the GI50 was 0.0558 µg/mL with A498 renal; 0.0481 µg/mL in the assay on HS 578T breast; 0.0445 µg/mL in the assay on KM12 colon; 0.0166 µg/mL in the assay on LOX IMVI melanoma; 0.0894 µg/mL in the assay on MDA-MB-435; 0.26 µg/mL in the assay with UO-31 renal. In addition, the TGI is 0.39 µg/mL in the assay with A498 renal; 1.85 µg/mL in the assay on A549 NSCLC; 0.421 µg/mL in the assay on HS 578T breast; 0.776 µg/mL in the assay with KM12 colon; 1.57 µg/mL with LOX IMVI melanoma; 0.33 µg/mL with MDA-MB-435. Moreover, the TGI was determined as 0.155 µg/mL in the assay on NCI-H226 lung, 0.113 µg/mL in the assay with SF-539 CNS, 0.47 µg/mL with SW-620 colon and 5.46 µg/mL in the assay with UO-31 renal.

Regarding `Cc1c2cnccc2c(C)c2c1c1cc(C3OCCCO3)ccc1n2C`, the GI50 was 139 nM in the assay on A498 renal; 461 nM in the assay with A549 NSCLC; 416 nM with HS 578T breast; 500 nM with KM12 colon; 146 nM in the assay on LOX IMVI melanoma; 411 nM in the assay on MDA-MB-435. The GI50 is 213 nM with NCI-H226 lung, 272 nM with SF-539 CNS, 205 nM with SW-620 colon and 278 nM in the assay with UO-31 renal. The TGI in the assay on A498 renal is 520 nM; in the assay on A549 NSCLC, 2500 nM; in the assay on HS 578T breast, 2830 nM; with KM12 colon, 3770 nM; in the assay on LOX IMVI melanoma it was 659 nM; in the assay with MDA-MB-435 it was 1550 nM. The TGI in the assay with NCI-H226 lung was 962 nM; in the assay on SF-539 CNS it was 1320 nM; with SW-620 colon it was 1640 nM; in the assay on UO-31 renal it was 2270 nM.

In the case of `CN(C)CCCOc1ccccc1NC1=C(Cl)C(=O)C(Nc2ccccc2OCCCN(C)C)=C(Cl)C1=O`, the GI50 with A498 renal is 1840 nM; with A549 NSCLC it was 1510 nM; with HS 578T breast, 1830 nM; with KM12 colon it was 762 nM; with LOX IMVI melanoma, 180 nM; with MDA-MB-435, 636 nM. Further, the GI50 in the assay on NCI-H226 lung is 1980 nM; with SF-539 CNS it was 1660 nM; in the assay on SW-620 colon, 207 nM; with UO-31 renal, 1210 nM. Moreover, the TGI with A498 renal amounted to 5600 nM; with A549 NSCLC, 2940 nM; in the assay with HS 578T breast, 5460 nM; in the assay on KM12 colon it was 2200 nM; with LOX IMVI melanoma, 355 nM; with MDA-MB-435, 1440 nM. For the same compound, the TGI with NCI-H226 lung is 4220 nM; in the assay with SF-539 CNS, 3040 nM; with SW-620 colon, 415 nM; in the assay on UO-31 renal, 2460 nM.

As for `O=C(O)CSCc1cccc2ccccc12`, the TGI with A498 renal, in the assay on A549 NSCLC, in the assay on HS 578T breast, in the assay with KM12 colon, in the assay on LOX IMVI melanoma and with MDA-MB-435 was above 100000 nM in each case. In addition, the TGI in the assay on NCI-H226 lung, in the assay on SF-539 CNS, with SW-620 colon and in the assay on UO-31 renal was above 100000 nM throughout.

With `CNC(=O)c1cc(COc2nnc(Nc3ccc(Cl)cc3)c3ccoc23)ccn1`, the GI50 in the assay with A498 renal is 6650 nM and > 10000 nM; in the assay with A549 NSCLC, 4660 nM and > 10000 nM; in the assay on HS 578T breast, 2410 nM and 4620 nM; in the assay on KM12 colon it was 21500 nM and > 10000 nM; in the assay on LOX IMVI melanoma, 6410 nM and > 10000 nM; in the assay with MDA-MB-435 it was 10400 nM and > 10000 nM. Also, the GI50 in the assay with NCI-H226 lung is 3010 nM and 8730 nM; in the assay on SF-539 CNS, 1530 nM and 1890 nM; in the assay on SW-620 colon, 21100 nM and > 10000 nM; with UO-31 renal, 3300 nM and 4570 nM. Further, the TGI with A498 renal was 21900 nM and > 10000 nM; in the assay on A549 NSCLC, 20100 nM and > 10000 nM; in the assay with HS 578T breast, 10900 nM and > 10000 nM; with KM12 colon, 80900 nM and > 10000 nM; in the assay on LOX IMVI melanoma, 25100 nM and > 10000 nM; with MDA-MB-435 it was 43900 nM and > 10000 nM. Further, the TGI is 13100 nM and > 10000 nM with NCI-H226 lung; 5860 nM and > 10000 nM in the assay with SF-539 CNS; 56600 nM and > 10000 nM in the assay on SW-620 colon; 15000 nM and > 10000 nM with UO-31 renal.

On to `COC1=CC(c2ccc[nH]2)=N/C1=C\c1[nH]c(C)c(C(=O)OCc2ccccc2)c1C`, for which the GI50 with A498 renal was 169 nM; with A549 NSCLC, 82.6 nM; with HS 578T breast, 80.4 nM; in the assay with KM12 colon, 52.5 nM; with LOX IMVI melanoma, 18.9 nM; in the assay with MDA-MB-435, 55.7 nM. Moreover, the GI50 in the assay with NCI-H226 lung is 132 nM; with SF-539 CNS, 111 nM; in the assay on SW-620 colon, 34.6 nM; in the assay on UO-31 renal, 144 nM. The TGI came out at 1020 nM with A498 renal; 4680 nM in the assay with A549 NSCLC; 662 nM with HS 578T breast; 1520 nM with KM12 colon; 42 nM in the assay on LOX IMVI melanoma; 1310 nM in the assay on MDA-MB-435. In addition, the TGI in the assay with NCI-H226 lung amounted to 1520 nM; with SF-539 CNS, 1540 nM; in the assay with SW-620 colon, 1210 nM; in the assay on UO-31 renal it was 336 nM.

On to `COc1cc(C(=O)OCCCCCCCCCCC[P+](c2ccccc2)(c2ccccc2)c2ccccc2)ccc1O`, for which the GI50 in the assay with A498 renal is 1840 nM; in the assay with HS 578T breast it was 549 nM; with MDA-MB-435, 312 nM; in the assay on UO-31 renal it was 1690 nM. Moreover, the TGI with A498 renal was found to be 5230 nM; with HS 578T breast, 5250 nM; in the assay with MDA-MB-435, 1240 nM; with UO-31 renal it was 3170 nM.

`COc1cc(-c2nn3c(/C=C4/C(=O)Nc5ccccc54)c(-c4ccc(C)cc4)nc3s2)cc(OC)c1OC`: the GI50 in the assay with A498 renal was 7280 nM; in the assay with A549 NSCLC it was 2120 nM; in the assay on HS 578T breast it was 505 nM; in the assay on KM12 colon, above 100000 nM; with NCI-H226 lung, 22500 nM; in the assay with SF-539 CNS, 12900 nM. Besides, in the assay with UO-31 renal, the GI50 was 8440 nM. Besides, the TGI in the assay on A498 renal is 36700 nM; in the assay with A549 NSCLC it was above 100000 nM; in the assay on HS 578T breast it was 7490 nM; in the assay on KM12 colon it was above 100000 nM; in the assay with NCI-H226 lung, 59900 nM; with SF-539 CNS it was 96000 nM. This compound also gave a TGI in the assay on UO-31 renal above 100000 nM.

For `CCSc1nnc2c(-c3ccccc3)n[nH]c2n1`, the TGI with A549 NSCLC, in the assay with HS 578T breast, in the assay with KM12 colon, with LOX IMVI melanoma, with MDA-MB-435 and with NCI-H226 lung was above 100000 nM in each case. Besides, the TGI in the assay on SF-539 CNS, in the assay with SW-620 colon and with UO-31 renal was above 100000 nM throughout.
